Assay results from patent publication US20240101548A1, “HYDROXAMATE COMPOUND, PREPARATION METHOD THEREFOR AND APPLICATION THEREOF” (SHENZHEN CHIPSCREEN BIOSCIENCES CO., LTD., priority 2020, published 2024).
Like-named read-outs stand apart in the source and are kept apart here.

What was measured:
[1] = tested on: IL-2-induced JAK1/JAK3 signal pathway; assay: IL-2-induced proliferation of KHYG-1 cells (JAK1/JAK3 signal); format: cell-based, human; settings: Homo sapiens; KHYG-1 cell proliferation, IL-2 10 ng/mL, 72 hours; read-out: Inhibition activity IC50 on IL-2-induced JAK1/JAK3 signal pathway
Outline: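 Controls were wells lacking both compound and cytokine (0%) and compound-free IL-2 wells (100%). C50 was calculated from inhibition rates across doses.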

[2] = tested on: INF-α-induced pSTAT5 in human PBMC; assay: INF-α-induced pSTAT5 in human PBMC (FACS, CD3 positive cells); format: cell-based; settings: Homo sapiens, PBMC, IFN-α 30 ng/ml, read-out: Inhibition activity IC50 on INF-α-induced pSTAT5 in human PBMC
Protocol: hPBMC (available from Shanghai AoNeng Biotechnology Co., Ltd.) was inoculated in 96-well plate, added with compound of the present invention (at concentrations of 40 nM and 200 nM), incubated for 60 min (compound in concentrations of 2 nM, 10 nM respectively during the incubation); added with 30 ng/ml of stimulating factor IFN-α (BioLegend) together with anti-CD3 antibody (Biolegend) and then continued to be incubated for 30 min. After the incubation, each well was added with 1 mL of fixing solution (BD Biosciences), the obtained mixture was incubated for 10 min followed by centrifugation, added with 400 μL/well of Perm III (BD Biosciences), followed by further incubation at 4° C. for 30 min. The obtained mixture was added with mouse anti-human pSTAT5 antibody (Alexa Fluor® 647 Conjugate), followed by incubation at room temperature for 40 min. Fluorescence intensity of pSTAT5 in CD3 positive cells was detected by FACS.
Inhibition rate at individual compound concentration was calculated with the following formula:
Inhibition rate=(MFI value(IFN-α-stimulated control)−MI value(2/10 nM compound treated group)/MFI value(IFN-α-stimulated control)[…]
wherein: MFI value meant fluorescence intensity value; IFN-α-stimulated control meant control group which was operated similarly to the experimental groups but no compound of the present invention was added.

[3] = tested on: EPO-induced JAK2 signal pathway; assay: EPO-induced proliferation of UT-7 cells (JAK2 signal); format: cell-based, human; settings: Homo sapiens, UT7; UT-7 cell proliferation, EPO 10 ng/mL, 72 hours; read-out: Inhibition activity IC50 on EPO-induced JAK2 signal pathway
Outline: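 […] was derived from inhibition rates across doses, scaled between wells lacking compound and cytokine (0) and EPO without compound (100), using alamarBlue fluorescence at Ex530/Em590. Compound (final 0-10000 nM) and 10 ng/mL EPO were given to UT-7 cells at 15000 per well for 72 h at 37° C.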

[4] = tested on: IL-10-induced JAK1/TYK2 signal pathway; assay: IL-10-induced JAK1/TYK2 signal pathway STAT3-Luc reporter gene assay in U2OS cells; format: cell-based, human; settings: Homo sapiens, U2OS cells, STAT3-Luc reporter, IL-10 10 ng/mL, read-out: Half inhibition dose (IC50) on IL-10-induced JAK1/TYK2 signal pathway
Outline: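 Luciferase read-out (560 nm) corrected by GFP signal (Ex485/Em520) gives IL-10 pathway activity, and IC50 is derived from inhibition rates. Cells were U2OS transfected with IL-10R1 plus STAT3-Luc reporter, pretreated 6 h with 0.1–300 nM compound, then stimulated 24 h with IL-10 at 10 ng/mL.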

| Structure (SMILES) | IC50 [1] [nM] | IC50 [2] [nM] | IC50 [3] [nM] | IC50 [4] [nM] | IC50 ([4]; U2OS) [nM] |
| --- | --- | --- | --- | --- | --- |
| CCONC(=O)c1cnc(Nc2cc(C)nc(C)n2)cc1Nc1cccc(-c2cnccn2)c1OC [Example 248, 6-((2,6-dimethylpyrimidin-4-yl)amino)-N-ethoxy-4-((2-methoxy-3-(pyrazin-2-yl)phenyl)amino)nicotinamide] | > 10000 | < 2 | > 10000 | 1.04 | – |
| CCONC(=O)c1cnc(Nc2cc(C)nc(C)n2)cc1Nc1cc(F)cc(-c2ncc(C)cn2)c1OC [Example 225, 6-((2,6-dimethylpyrimidin-4-yl)amino)-N-ethoxy-4-((5-fluoro-2-methoxy-3-(5-methylpyrimidin-2-yl)phenyl)amino)nicotinamide] | > 10000 | < 2 | > 10000 | – | 0.36 |
| CCONC(=O)c1cnc(Nc2cc(C)nc(C)n2)cc1Nc1cc(F)cc(-c2ncc(F)cn2)c1OC [Example 211] | > 10000 | < 2 | > 10000 | – | 1.98 |
| CCONC(=O)c1cnc(NC(=O)C2CC2)cc1Nc1cc(F)cc(-c2ncn(C3CC3)n2)c1OC [Example 205] | > 10000 | < 2 | > 10000 | – | 1.79 |
